{
  "source": "patent US20240262804A1",
  "about": "“NITROGEN-CONTAINING HETEROCYCLIC KETONES, PREPARATION METHODS AND MEDICINAL USES THEREOF” (Hansoh Bio LLC, priority 2021, published 2024)",
  "data": [
    {"molecular_target": "bovine cardiac myosin (Bos taurus (Bovine), UniProt Q9BE39)", "sequence (Q9BE39 whole entry)": "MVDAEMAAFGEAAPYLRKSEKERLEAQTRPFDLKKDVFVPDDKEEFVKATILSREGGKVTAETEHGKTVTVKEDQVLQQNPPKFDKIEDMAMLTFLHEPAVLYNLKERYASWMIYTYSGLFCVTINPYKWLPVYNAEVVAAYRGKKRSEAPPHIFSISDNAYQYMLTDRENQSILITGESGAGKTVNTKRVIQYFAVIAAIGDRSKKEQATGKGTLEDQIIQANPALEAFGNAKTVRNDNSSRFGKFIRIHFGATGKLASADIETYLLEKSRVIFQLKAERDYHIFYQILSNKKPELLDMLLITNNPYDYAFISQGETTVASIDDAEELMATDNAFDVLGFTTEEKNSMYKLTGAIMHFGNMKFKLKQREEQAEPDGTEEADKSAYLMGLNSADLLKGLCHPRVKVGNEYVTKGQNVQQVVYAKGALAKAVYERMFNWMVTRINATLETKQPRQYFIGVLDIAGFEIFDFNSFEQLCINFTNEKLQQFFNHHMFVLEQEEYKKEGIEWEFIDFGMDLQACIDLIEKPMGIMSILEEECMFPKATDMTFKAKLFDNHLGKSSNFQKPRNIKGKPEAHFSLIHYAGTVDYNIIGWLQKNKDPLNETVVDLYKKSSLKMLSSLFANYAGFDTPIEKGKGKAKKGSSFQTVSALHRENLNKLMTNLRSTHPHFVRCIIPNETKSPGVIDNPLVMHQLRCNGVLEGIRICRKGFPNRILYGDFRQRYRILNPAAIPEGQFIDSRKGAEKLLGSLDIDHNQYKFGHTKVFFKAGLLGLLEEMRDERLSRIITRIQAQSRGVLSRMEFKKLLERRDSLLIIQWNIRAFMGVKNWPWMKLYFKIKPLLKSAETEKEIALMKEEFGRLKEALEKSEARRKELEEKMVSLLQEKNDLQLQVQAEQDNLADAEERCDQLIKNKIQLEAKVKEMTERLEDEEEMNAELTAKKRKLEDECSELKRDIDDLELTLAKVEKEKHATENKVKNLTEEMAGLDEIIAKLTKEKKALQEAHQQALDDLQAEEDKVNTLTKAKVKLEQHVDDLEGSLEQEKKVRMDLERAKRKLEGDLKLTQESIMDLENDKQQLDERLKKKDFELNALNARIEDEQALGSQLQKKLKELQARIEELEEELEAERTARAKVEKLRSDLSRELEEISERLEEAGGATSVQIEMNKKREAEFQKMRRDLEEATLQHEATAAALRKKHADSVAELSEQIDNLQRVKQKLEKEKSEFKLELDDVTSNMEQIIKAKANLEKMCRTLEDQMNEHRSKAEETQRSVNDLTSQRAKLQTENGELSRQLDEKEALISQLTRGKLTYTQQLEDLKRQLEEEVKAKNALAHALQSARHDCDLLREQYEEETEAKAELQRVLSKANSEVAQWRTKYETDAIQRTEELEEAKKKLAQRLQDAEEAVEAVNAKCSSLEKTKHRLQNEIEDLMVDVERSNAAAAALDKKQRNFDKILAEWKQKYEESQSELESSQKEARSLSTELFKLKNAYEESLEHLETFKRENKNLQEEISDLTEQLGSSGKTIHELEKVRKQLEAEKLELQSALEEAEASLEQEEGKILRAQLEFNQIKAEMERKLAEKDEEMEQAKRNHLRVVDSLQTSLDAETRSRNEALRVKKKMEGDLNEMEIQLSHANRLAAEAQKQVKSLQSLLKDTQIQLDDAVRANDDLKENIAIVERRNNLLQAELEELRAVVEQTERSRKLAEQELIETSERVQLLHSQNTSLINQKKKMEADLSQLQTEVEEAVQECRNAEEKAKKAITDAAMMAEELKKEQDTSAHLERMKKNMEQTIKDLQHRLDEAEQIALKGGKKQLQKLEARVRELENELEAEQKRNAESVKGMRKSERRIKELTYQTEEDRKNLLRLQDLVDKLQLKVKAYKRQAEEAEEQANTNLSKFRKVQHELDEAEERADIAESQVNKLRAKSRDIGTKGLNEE", "sequence (P85100 whole entry partner)": "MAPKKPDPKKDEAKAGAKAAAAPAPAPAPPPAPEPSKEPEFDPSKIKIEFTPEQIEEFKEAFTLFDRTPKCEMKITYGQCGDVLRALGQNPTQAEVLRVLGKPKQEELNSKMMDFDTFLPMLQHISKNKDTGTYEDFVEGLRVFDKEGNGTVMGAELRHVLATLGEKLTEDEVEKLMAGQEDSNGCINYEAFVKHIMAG", "sequence (Q3SZE5 whole entry partner)": "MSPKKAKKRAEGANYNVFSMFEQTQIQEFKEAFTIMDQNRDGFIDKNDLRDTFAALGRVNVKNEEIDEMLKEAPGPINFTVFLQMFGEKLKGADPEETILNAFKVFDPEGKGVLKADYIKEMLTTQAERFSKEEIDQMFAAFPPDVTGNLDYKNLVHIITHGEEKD", "assay": "Myosin inhibitory potency: PK/LDH-coupled ATPase assay on bovine skinned cardiac myofibrils", "format": "biochemical", "conditions": "pCa=6.25, 50 μM ATP, 25° C., read-out: myosin inhibition activity IC50", "outline": "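Bovine left-ventricle skinned myofibrils (1 mg/mL) in PM12 buffer pH 6.8 at pCa 6.25, 50 μM ATP, PK/LDH-coupled NADH depletion read at 340 nm, 25 °C.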", "units": {"IC50": "nM"}, "values": [
      {"compound": "C[C@H](Nc1nc(=O)n(C2CCOCC2)c(=O)[nH]1)c1cccc(C(F)(F)F)c1", "note": "[Example 252]", "IC50": 6890},
      {"compound": "C[C@H](Nc1nc(=O)n(-c2cccnc2)c(=O)[nH]1)C1CCCCC1", "note": "[Example 24]", "IC50": 9140},
      {"compound": "CC(Nc1nc(=O)n(C2CCOCC2)c(=O)[nH]1)c1cccc(-n2cccn2)c1", "note": "(stereo not drawn) [Example 217]", "IC50": 3660},
      {"compound": "C[C@H](Nc1nc(=O)n(C2CCOCC2)c(=O)[nH]1)c1cccc(C2=CCN(C(=O)OC(C)(C)C)CC2)c1", "note": "[Example 210]", "IC50": 3300},
      {"compound": "C[C@H](Nc1nc(=O)n(C2CCCC2)c(=O)[nH]1)C1CCCCC1", "note": "[Example 78]", "IC50": 4890},
      {"compound": "CC(C)n1c(=O)nc(N[C@@H](C)c2cccc([C@@H](C)O)c2)[nH]c1=O", "note": "[Example 271]", "IC50": 870},
      {"compound": "Cc1cc(C)cc([C@H](C)Nc2nc(=O)n(C3CCOCC3)c(=O)[nH]2)c1", "note": "[Example 56]", "IC50": 1490},
      {"compound": "Cc1cccc([C@H](C)Nc2nc(=O)n([C@H](C)C(F)(F)F)c(=O)[nH]2)c1", "note": "[Example 41]", "IC50": 2190},
      {"compound": "C[C@H](Nc1nc(=O)n(C2(C(F)(F)F)CC2)c(=O)[nH]1)C1CCCCC1", "note": "[Example 54]", "IC50": 4520},
      {"compound": "CO[C@H]1COCC[C@@H]1n1c(=O)nc(N[C@@H](C)c2cccc(C)c2)[nH]c1=O", "note": "[Example 347]", "IC50": 2330},
      {"compound": "CC(Nc1nc(=O)n(C2CCN(C(=O)OC(C)(C)C)CC2)c(=O)[nH]1)c1ccc(C(F)(F)F)cc1", "note": "(stereo not drawn) [Example 145]", "IC50": 3770},
      {"compound": "Cc1cccc([C@H](C)Nc2nc(=O)n(C3CCN(CCF)CC3)c(=O)[nH]2)c1", "note": "[Example 301]", "IC50": 800},
      {"compound": "Cc1c(-c2cccc([C@H](C)Nc3nc(=O)n(C4CCOCC4)c(=O)[nH]3)c2)cnn1C", "note": "[Example 197]", "IC50": 2040},
      {"compound": "C[C@H](Nc1nc(=O)n(C2CCOCC2)c(=O)[nH]1)c1cccc(Cl)c1", "note": "[Example 154]", "IC50": 370},
      {"compound": "COC(=O)N1CCC(n2c(=O)nc(N[C@@H](C)c3cccc(C)c3)[nH]c2=O)CC1", "note": "[Example 242]", "IC50": 1230},
      {"compound": "C[C@H](Nc1nc(=O)n(C2CCN(C)CC2)c(=O)[nH]1)C1CCCCC1", "note": "[Example 59]", "IC50": 2590},
      {"compound": "Cc1cccc([C@H](C)Nc2nc(=O)n(C3CCN(C(C)C)CC3)c(=O)[nH]2)c1", "note": "[Example 37]", "IC50": 1290},
      {"compound": "C[C@H](Nc1nc(=O)n(C(C2CC2)C(F)(F)F)c(=O)[nH]1)C1CCCCC1", "note": "(stereo partly drawn) [Example 18]", "IC50": 480},
      {"compound": "C[C@H](Nc1nc(=O)n(C2CCOCC2)c(=O)[nH]1)c1cccc(-c2ccccc2F)c1", "note": "[Example 224]", "IC50": 700},
      {"compound": "C[C@H](Nc1nc(=O)n(C2CCOCC2)c(=O)[nH]1)c1ccc(Cl)cc1", "note": "[Example 251]", "IC50": 950},
      {"compound": "C[C@H](Nc1nc(=O)n(C2CCOCC2)c(=O)[nH]1)c1ccc(C(F)F)cc1", "note": "[Example 157]", "IC50": 1000},
      {"compound": "CC(Nc1nc(=O)n(C2CCOCC2)c(=O)[nH]1)C1CCCCCC1", "note": "(stereo not drawn) [Example 109]", "IC50": 4580},
      {"compound": "C[C@H](Nc1nc(=O)n(C2CCOCC2)c(=O)[nH]1)c1cccc(-c2cnn(C)c2)c1", "note": "[Example 229]", "IC50": 820},
      {"compound": "C[C@@H](Nc1nc(=O)n(C2CCOCC2)c(=O)[nH]1)c1ccc(C(F)(F)F)cc1", "note": "[Example 333]", "IC50": 1030},
      {"compound": "C[C@@H](Nc1nc(=O)n(C2CCOCC2)c(=O)[nH]1)c1ccc2c(c1)OC(F)(F)O2", "note": "[Example 318]", "IC50": 1050},
      {"compound": "O=c1nc(NC(CF)c2ccccc2)[nH]c(=O)n1C1CCCCC1", "note": "(stereo not drawn) [Example 142]", "IC50": 4830},
      {"compound": "CC(C)c1ccc([C@H](C)Nc2nc(=O)n(C3CCOCC3)c(=O)[nH]2)cc1", "note": "[Example 328]", "IC50": 850},
      {"compound": "COC[C@H](Nc1nc(=O)n(C(C)C)c(=O)[nH]1)c1cccc(C)c1", "note": "[Example 285]", "IC50": 510},
      {"compound": "Cc1nccn1-c1cccc([C@H](C)Nc2nc(=O)n(C3CCOCC3)c(=O)[nH]2)c1", "note": "[Example 203]", "IC50": 2070},
      {"compound": "CC(Nc1nc(=O)n(C(C)C)c(=O)[nH]1)c1ccccc1O", "note": "(stereo not drawn) [Example 51]", "IC50": 11100},
      {"compound": "CC[C@H](Nc1nc(=O)n(C(C)C)c(=O)[nH]1)C1CCCCC1", "note": "[Example 70]", "IC50": 5280},
      {"compound": "COC[C@H](Nc1nc(=O)n(C2CCOCC2)c(=O)[nH]1)c1cccc(C)c1", "note": "[Example 294]", "IC50": 880},
      {"compound": "C[C@H](Nc1nc(=O)n(C2CCC(F)(F)CC2)c(=O)[nH]1)C1CCCCC1", "note": "[Example 55]", "IC50": 4630},
      {"compound": "C=Cc1ccc(C(C)Nc2nc(=O)n(C3CCOCC3)c(=O)[nH]2)cc1", "note": "(stereo not drawn) [Example 141]", "IC50": 6790},
      {"compound": "CO[C@H]1COCC[C@@H]1n1c(=O)nc(N[C@@H](C)c2cc(C)ccc2F)[nH]c1=O", "note": "[Example 282]", "IC50": 900},
      {"compound": "Cc1cc([C@H](C)Nc2nc(=O)n(C3CCOCC3)c(=O)[nH]2)ccc1Cl", "note": "[Example 330]", "IC50": 1080},
      {"compound": "Cc1ccc(F)c([C@H](C)Nc2nc(=O)n([C@H](C3CC3)C(F)(F)F)c(=O)[nH]2)c1", "note": "[Example 303]", "IC50": 560},
      {"compound": "C[C@H](Nc1nc(=O)n(C2CCOCC2)c(=O)[nH]1)c1ccc(Cl)c(Cl)c1", "note": "[Example 165]", "IC50": 200},
      {"compound": "C[C@H](Nc1nc(=O)n(CC(F)(F)F)c(=O)[nH]1)c1ccc(OC(F)(F)F)cc1", "note": "[Example 176]", "IC50": 7900},
      {"compound": "C[C@H](Nc1nc(=O)n([C@H]2CC[C@@H](F)CC2)c(=O)[nH]1)C1CCCCC1", "note": "[Example 86]", "IC50": 1830},
      {"compound": "CNC(=O)N1CCC(n2c(=O)nc(N[C@@H](C)c3cccc(C)c3)[nH]c2=O)CC1", "note": "[Example 245]", "IC50": 5500},
      {"compound": "Cc1cc([C@H](C)Nc2nc(=O)n([C@H]3CCOC[C@H]3F)c(=O)[nH]2)ccc1F", "note": "[Example 297]", "IC50": 1590},
      {"compound": "CC(Nc1nc(=O)n(C2CCOCC2)c(=O)[nH]1)c1ccc(C2CC2)cc1", "note": "(stereo not drawn) [Example 137]", "IC50": 4930},
      {"compound": "C[C@H](Nc1nc(=O)n(C2CCOCC2)c(=O)[nH]1)c1cccc(N2CC(C)(C)C2)c1", "note": "[Example 214]", "IC50": 3400},
      {"compound": "CC(C)n1c(=O)nc(N[C@@H](C)c2cccc(C3CCNCC3)c2)[nH]c1=O", "note": "[Example 293]", "IC50": 2810},
      {"compound": "O=c1nc(N[C@H](c2ccc(F)cc2F)C(F)F)[nH]c(=O)n1C1CCOCC1", "note": "[Example 263]", "IC50": 2310},
      {"compound": "C[C@H](Nc1nc(=O)n(CC(F)(F)F)c(=O)[nH]1)C1CCCCC1", "note": "[Example 16]", "IC50": 690},
      {"compound": "CC(C)N1CCC(n2c(=O)nc(N[C@@H](C)C3CCCCC3)[nH]c2=O)CC1", "note": "[Example 31]", "IC50": 5910},
      {"compound": "C[C@H](Nc1nc(=O)n(C2CCOCC2)c(=O)[nH]1)c1cccc(C2CCNCC2)c1", "note": "[Example 209]", "IC50": 1950},
      {"compound": "CC(Nc1nc(=O)n(C2CCOCC2)c(=O)[nH]1)c1ccc(CO)cc1", "note": "(stereo not drawn) [Example 140]", "IC50": 12300},
      {"compound": "Cc1cccc([C@H](C)Nc2nc(=O)n([C@@H](C)C(F)(F)F)c(=O)[nH]2)c1", "note": "[Example 40]", "IC50": 2210},
      {"compound": "CO[C@@H]1COCC[C@H]1n1c(=O)nc(N[C@@H](C)c2cc(C)ccc2F)[nH]c1=O", "note": "[Example 283]", "IC50": 1090}
    ]},
    {"tested_on": "not listed separately", "assay": "Pharmacokinetic profiles in male SD rats (IV and PO)", "format": "in vivo, rat", "conditions": "IV 1 mg/kg, PO 5 mg/kg, route for this parameter not given", "description": "(§1) Pharmacokinetic profile of compounds were determined by IV (1 mg/Kg) and PO (5 mg/Kg) administrations in male SD rats. Compounds were administrated with free base and formulated in 5% DMAC+25% PEG-400+70%(30% 2-HP-β-CD in water). The compounds were dosed at 1 mg/kg for intravenous and 5 mg/kg oral administration. Blood samples were collected at 0, 0.083, 0.25, 0.5, 1, 2, 4, 8 and 24 hours post dose, serial bleeding for plasma for the IV group. Blood samples were collected at 0, 0.25, 0.5, 1, 2, 4, 6, 8 and 24 hours post dose, serial bleeding for the PO group. Approximately 150 μL whole blood/time point were collected in K2EDTA tube via jugular vein. Blood sample was put on ice and centrifuged at 2000 g for 5 min to obtain plasma sample within 15 minutes. PK parameters were estimated by non-compartmental model using WinNonlin 8.2.", "units": {"DNAUC": "ng·h/mL"}, "values": [
      {"compound": "C[C@H](Nc1nc(=O)n(C2CCOCC2)c(=O)[nH]1)c1cccc(C(F)(F)F)c1", "note": "[Example 252]", "DNAUC": 3959.8},
      {"compound": "C[C@H](Nc1nc(=O)n(C2CCOCC2)c(=O)[nH]1)c1ccc(Cl)c(Cl)c1", "note": "[Example 165]", "DNAUC": 11463.4}
    ]},
    {"tested_on": "not listed separately", "assay": "Pharmacokinetic profiles in male SD rats (IV and PO)", "format": "in vivo, rat", "conditions": "rat, plasma, IV 1 mg/kg, PO 5 mg/kg, route for this parameter not given", "description": "as §1", "units": {"clearance": "mL/min/kg", "half-life": "h"}, "values": [
      {"compound": "C[C@H](Nc1nc(=O)n(C2CCOCC2)c(=O)[nH]1)c1cccc(C(F)(F)F)c1", "note": "[Example 252]", "clearance": 3.5, "half-life": 4.41},
      {"compound": "C[C@H](Nc1nc(=O)n(C2CCOCC2)c(=O)[nH]1)c1ccc(Cl)c(Cl)c1", "note": "[Example 165]", "clearance": 1.67, "half-life": 4.58}
    ]},
    {"tested_on": "not listed separately", "assay": "Pharmacokinetic profiles in male SD rats (IV and PO)", "format": "in vivo, rat", "conditions": "rat, plasma, IV 1 mg/kg, PO 5 mg/kg, route for this parameter not given, read-out: VSS", "description": "as §1", "units": {"Vd": "L/kg"}, "values": [
      {"compound": "C[C@H](Nc1nc(=O)n(C2CCOCC2)c(=O)[nH]1)c1cccc(C(F)(F)F)c1", "note": "[Example 252]", "Vd": 0.94},
      {"compound": "C[C@H](Nc1nc(=O)n(C2CCOCC2)c(=O)[nH]1)c1ccc(Cl)c(Cl)c1", "note": "[Example 165]", "Vd": 0.46}
    ]}
  ]
}
